From patent EP0516034A1, “Pharmaceutical compositions with immunosuppresive properties” (FIDIA S.p.A., priority 1991, dated 1992)

Tests used:
Assay type in all cases: cell-based, human
PBMC [1] = experiment: Trypan blue exclusion test of cell viability; details: PHA activated PBMC
Description: To exclude cytotoxic effect of used derivatives, cell viability (> 99%) was tested before, during, and after the incubation by the trypan blue exclusion test.

IL-2 receptor = experiment: Flow cytometry of IL-2 receptor expression on PHA-stimulated PBMC; details: 72 hours, PHA 1 µg/ml, PS 60 nmol/10⁶ cells; PHA alone 77%
Description: (§1) To confirm the DNA synthesis parameter data obtained, a second lymphocyte activity parameter was analysed - the expression of the IL-2 and transferrin receptors on the cell membrane.
(§2) To this purpose, after incubation with PHA 1 µg/ml for 72 hours in the presence or absence of PS, the cells were stained with fluorescent monoclonal antibodies against the above receptor, and then analysed on a FAC Star (Beckton-Dickinson) flow cytometer equipped with an argon ion laser operating at 480 nm and 200 mw.
(§3) 10⁵ PBMC were cultured for 72 hours with PHA 1 µg/ml in the presence or absence of PS 60 nmol/10⁶ cells. Fluorescence intensity (receptor expression) and light diffusion (cell size) were measured using flow cytometry. The data are reported as percentage of cells located in the shown region.

transferrin receptor = experiment: Flow cytometry of transferrin receptor expression on PHA-stimulated PBMC; details: 72 hours, PHA 1 µg/ml, PS 60 nmol/10⁶ cells; PHA alone 54%
Description: as §1, §2, §3

PBMC [2] = experiment: DNA synthesis ([3H]thymidine incorporation) in PHA-stimulated PBMC; details: PBMC cultured 72 hours with PHA 1 µg/ml; for inhibition of DNA synthesis: result in words
Description: The PBMCs were obtained by standard density gradient centrifugation of heparinized human venous blood through a Ficoll-Hypaque cushion. The cells were composed of 90% lymphocytes and 10% monocytes as assessed by acridine orange staining.
DNA Synthesis. The cells were re-suspended in RPMI + 5% FCS and spread on 3072 Falcon microtiter plates at a density of 10⁵ cells in 0.2 ml of final volume. They were cultured for 72 hours at 37°C with PHA 1 µg/ml in the presence or absence of phospholipids. The cells were marked with 1 uCi/well of [³H]thymidine for the last 18 hours culture before being collected on filter paper and counted in a scintillation counter.

Row | Compound | inhibition of DNA synthesis (PBMC [2]) | also measured
1 | phosphatidylserine [PS] | marked inhibition | Cell viability (PBMC [1]): not affected; lymphocytes expressing IL-2 receptors (IL-2 receptor): 15%; lymphocytes expressing transferrin receptors (transferrin receptor): 20%; IC50 (PBMC [2]; corresponds to 30 nmol PS/10⁶ cells, read-out: 50% of the maximum effect, concentration of PS in the medium): 15 µM; 50% of the maximum effect (inhibition of DNA synthesis) (PBMC [2]; phospholipid as liposomes): 30 nmol/10⁶ cells
2 | CCCCCCCCCCCCCCCC(=O)OC[C@H](COP(=O)(O)OC[C@H](N)C(=O)O)OC(=O)CCCCCCCCCCCCCCC [dipalmitoyl PS, dipalmitoyl-PS, reference compound] | do not inhibit DNA synthesis, but slightly stimulate it | 
3 | CCCCCCCCCCCCCC(=O)OC[C@H](COP(=O)(O)OC[C@H](N)C(=O)O)OC(=O)CCCCCCCCCCCCC [dimyristoyl PS, dimyristoyl-PS, reference compound] | do not inhibit DNA synthesis, but slightly stimulate it | 
4 | phosphatidylinositol [PI] | active | 
5 | phosphatidylcolin [PC, reference compound] | totally inactive | 
6 | CCCCCCCCCCCCCCCC(=O)OCC(COC(=O)CCCCCCCCCCCCCCC)OP(=O)(O)OC[C@H](N)C(=O)O [PS-S1, 1,3-dipalmitoylglycero-2-phosphoryl-L-serine, reference compound] | do not inhibit DNA synthesis, but slightly stimulate it | 
7 | CCCCCCCC/C=C\CCCCCCCC(=O)OC[C@H](COP(=O)(O)OC[C@H](N)C(=O)O)OC(=O)CCCCCCC/C=C\CCCCCCCC [Dioleyl PS, dioleyl-PS] | same activity as PS containing L-serine | 
8 | phosphatidylglycerol [PG, reference compound] | totally inactive | 
9 | CCCCCCCC/C=C\CCCCCCCCOCC(COCCCCCCCC/C=C\CCCCCCCC)OP(=O)(O)OC[C@H](N)C(=O)O [PS-S10, 1,3-dioleylglycero-2-phosphoryl-L-serine] | same activity as PS containing L-serine | 
10 | phosphatidic acid [PA, reference compound] | totally inactive | 
